The data set in a line: solvent given as SMILES.

Turning to `CCCCN(CCCC)c1ccc(C#Cc2cc(C#Cc3ccc(N(CCCC)CCCC)cc3)c(C#Cc3ccc(C#N)cc3)cc2C#Cc2ccc(C#N)cc2)cc1`, the emission maximum by setting is: (in ClCCl) 557 nm; (in c1ccccc1) 512 nm.

Under “in ClCCl”, `CN1c2ccc3c(c2-c2ccccc2S1(=O)=O)-c1ccccc1S(=O)(=O)N3C` returned an emission maximum of 443 nm.

On to `COc1ccc2c(c1)c(C#N)c(C#N)c1cc(OC)ccc12`, for which the emission maximum (in ClC(Cl)Cl) is on record as 440 nm.

As for `O=C(O)c1ccccc1Nc1cccc(C(F)(F)F)c1`, the emission maximum is, setting by setting: (in C1CCCCC1) 406 nm; (in C1CCOC1) 408 nm; (in C1COCCO1) 410 nm; (in CC#N) 426 nm; (in CCOC(C)=O) 410 nm; (in CN(C)C=O) 425 nm. Further, the emission maximum (in CO) came to 428 nm and the emission maximum (in ClC(Cl)Cl) is recorded as 426 nm.

The compound `COc1ccc(C2=N/C(=C\c3ccc(C#N)cc3)C(=O)N2)cc1OC` displayed an emission maximum (in C1COCCO1) of 482 nm.

Consider `CCc1c(C)c2n(c1C)[B-](F)(F)[N+]1=C(NCc3ccc(OC)cc3)C(SC#N)=CC1=C2C`, for which the emission maximum amounted to 582 nm (in CC#N); 589 nm (in CCCCCC); 586 nm (in CCOC(C)=O); 583 nm (in CO); 586 nm (in ClCCl).

In the case of `Cc1cc(C)c2c(c1)c1cc(C)cc(C)c1n2-c1ccc2c(c1)Oc1ccccc1B2c1c(C(C)C)cc(C(C)C)cc1C(C)C`, for the setting “in Cc1ccccc1”, the emission maximum is 443 nm.

As for `CCCCCCCCCCCCCCCCCCOC(=O)/C=C/C1=CC2=C(c3c(C)cc(C)cc3C)c3cccn3[B-](F)(F)[N+]2=C1`, for the setting “in ClCCl”, the emission maximum is 569 nm.

Under “in CCO”, `CNc1cc2nc3cc(F)c(F)cc3nc2cc1NC` had an emission maximum of 529 nm.

The compound `F[B-]1(F)OC(c2ccccc2)=Cc2cc3[n+](c[n+]21)[B-](F)(F)OC(c1ccccc1)=C3` yielded an emission maximum (in ClCCl) of 490 nm.

On to `CCn1c2ccccc2c2cc(-c3cc(-c4ccc5c(c4)c4ccccc4n5CC)ncn3)ccc21`, for which the emission maximum runs as follows: (in C1CCOC1) 395 nm; (in CCOC(C)=O) 392 nm; (in CN(C)C=O) 418 nm; (in Cc1ccccc1) 379 nm; (in ClCCl) 414 nm.

For the setting “in ClCCl”, `CN(C)c1ccc(C2=CC3=C(c4ccc(C=C(C#N)C#N)cc4)[C@H]4c5ccccc5[C@]3(S2)c2ccccc24)cc1` registered an emission maximum of 735 nm.

As for `COc1ccc2cc(/C=C/C3=C4CCc5ccccc5C4=[O+][B-](F)(F)O3)ccc2c1`, the emission maximum (in ClCCl) was 564 nm.

`COC(=O)/C(C#N)=c1\s/c(=c2/s/c(=C(/C#N)C(=O)OC)c3cc(-c4ccc(C)cc4)sc23)c2sc(-c3ccc(C)cc3)cc12` displayed an emission maximum (in Cc1ccccc1) of 652 nm.

For `CC(C)(C)c1ccc2oc3nc4oc5ccc(-n6c7ccccc7c7ccccc76)cc5c4cc3c2c1`, the emission maximum (in ClC(Cl)Cl) was 446 nm.

In turn, `COc1c2ccccc2c(OC)c2c1c1ccc(F)cc1n2C` yielded an emission maximum (in C1CCCCC1) of 404 nm, an emission maximum (in CC#N) of 413 nm, an emission maximum (in CO) of 410 nm and an emission maximum (in ClCCl) of 411 nm.

With `CCCCCCOc1ccc2ccc3oc(=O)cc4cc(OCCCCCC)c1c2c43`, for the setting “in CC1CCCO1”, the emission maximum was 490 nm.

For `Cc1ccc(-c2ccc(-c3ccc(C)cc3)c(/C(=C(/c3ccccc3)c3cc(-c4ccc(C)cc4)ccc3-c3ccc(C)cc3)c3ccccc3)c2)cc1`, the emission maximum (in C1CCOC1) was determined as 492 nm.

For the compound `Cc1cc(-c2ccc(-c3ccccc3)cc2)nc(-c2ccc(-n3c4ccccc4c4ccccc43)cc2)n1`, the emission maximum by setting is: (in C1CCOC1) 418 nm; (in CN(C)C=O) 474 nm; (in Cc1ccccc1) 386 nm; (in ClC(Cl)Cl) 416 nm.

For `CCn1c2ccc(/C=C(\C#N)c3ccccc3)cc2c2cc(/C=C(\C#N)c3ccccc3)ccc21`, the emission maximum (in ClCCl) is listed as 412 nm.

With `Cc1c(C(=O)c2ccc(C(F)(F)F)cc2)c2ccc3cccc4c5cccc6ccc1c(c65)c2c34`, the emission maximum (in ClCCl) was 545 nm.

In the case of `COc1ccc2c3c(c4ccc(OC)cc4c2c1)C(C)(C)c1ccc2ccccc2c1-3`, the emission maximum (in C1CCCCC1) worked out at 396 nm.

As for `Cc1ccc(/C=C/c2ccccc2-[n+]2cc([O-])on2)cc1`, the emission maximum by setting is: (in C1CCCCC1) 400 nm; (in CC#N) 504 nm.

`CCCN1/C(=C/C=C(/C=C/C2=[N+](CCC)c3ccccc3C2(C)C)c2ccc([N+](=O)[O-])cc2)C(C)(C)c2ccccc21`: the emission maximum was found to be 656 nm (in CO), 664 nm (in CS(C)=O) and 663 nm (in O).

Under “in C1CCOC1”, `c1ccc2c(c1)-c1ccccc1C21c2ccccc2-c2oc3c(c21)C1(c2ccccc2-c2ccccc21)c1ccccc1-3` came in with an emission maximum of 393 nm.

Turning to `Cc1ccc(C2=Cc3ccc4ccccc4[n+]3[B-](F)(F)O2)cc1`, where the note is “in ClC(Cl)Cl”, the emission maximum is recorded as 443 nm.

For `CC[n+]1c(C=C2C(=O)C(C=C3N(C)c4ccc(Cl)cc4C3(C)C)=C2[O-])[se]c2ccccc21`, the emission maximum runs as follows: (in CO) 662 nm; (in ClC(Cl)Cl) 677 nm.

As for `O=c1oc2ccccc2cc1-c1cccc(-c2cc3ccccc3oc2=O)c1`, the emission maximum (in ClC(Cl)Cl) came to 419 nm.

Consider `F[B-]1(F)n2c(ccc2-c2nc3ccccc3s2)C(c2ccccc2)=C2C=CC(c3nc4ccccc4s3)=[N+]21`, for which the emission maximum (in ClC(Cl)Cl) amounted to 643 nm.

Under “in ClC(Cl)Cl”, `COc1ccc(C2=Cc3c4ccccc4cc[n+]3[B-](F)(F)O2)cc1` came in with an emission maximum of 478.2 nm.

Take `CC1=CC(C)=[N+]2C1=C(c1ccc(I)cc1)c1c(C)cc(C)n1[B-]2(F)F`: where the note is “in ClC(Cl)Cl”, the emission maximum was 517.73 nm.

For `COc1ccc2c(c1)c1cc(OC)ccc1c1c2c2c(C(=O)NC(C)(C)C)ccc(C(=O)NC(C)(C)C)c2c2c3ccc(OC)cc3c3cc(OC)ccc3c21`, the emission maximum (in ClCCl) is recorded as 498 nm.

As to `CCCCCCCCCCCCC(CCCCCCCCCC)Cn1c2cc(/C=C/c3nc4ccccc4s3)c3cccc4c5cccc6c(/C=C/c7nc8ccccc8s7)cc1c(c65)c2c34` (stereo unspecified), the emission maximum reads like this: (in C1CCCCC1) 570 nm; (in CC#N) 581 nm; (in Cc1ccccc1) 582 nm; (in ClCCl) 585 nm.

As to `Cc1cc(-c2nc(-c3ccccc3)nc(-c3ccccc3)n2)ccc1-n1c2ccccc2c2cc3c(cc21)C1c2ccccc2C3c2ccccc21`, the emission maximum is reported as 431 nm (in Cc1ccccc1) and 451 nm (in O=P(c1ccccc1)(c1ccccc1)c1ccccc1Oc1ccccc1P(=O)(c1ccccc1)c1ccccc1).

Turning to `N#Cc1ccc(/C=C/c2ccc(C=C(c3ccccc3)c3ccccc3)cc2)cc1`, under “in C1CCOC1”, the emission maximum was determined as 456 nm.

With `CC[n+]1c(-c2ccccc2)c2cc(N)ccc2c2ccc(N)cc21`, the emission maximum (in O) came to 606 nm.

As for `O=P(c1ccccc1)(c1ccccc1)n1c2ccccc2c2cc(-n3c4ccccc4c4cc(-n5c6ccccc6c6cc(-n7c8ccccc8c8ccccc87)ccc65)ccc43)ccc21`, the emission maximum runs as follows: (in C1CCOC1) 378 nm; (in CC(C)=O) 382 nm; (in Cc1ccccc1) 376 nm; (in ClCCl) 383 nm.

Consider `Clc1nc(Nc2ccccc2)nc(Nc2ccc3c4cccc5cccc(c6cccc2c63)c54)n1`, for which the emission maximum reads like this: (in C1COCCO1) 478 nm; (in CC#N) 477 nm; (in CCCCOCCCC) 476 nm; (in CCOC(C)=O) 475 nm.

`CCn1c2ccccc2c2cccc(N(c3ccccc3)c3ccccc3)c21` came in with an emission maximum (in ClCCl) of 423 nm.

The compound `O=C(Nc1ccccc1[N+](=O)[O-])c1ccc2oc(-c3cc4ccccc4oc3=O)nc2c1` yielded an emission maximum (in ClCCl) of 443 nm.

As for `CCCC1(CCC)c2cc(-c3ccccc3)ccc2-c2ccc(-c3ccc4c(c3)C(CCC)(CCC)c3cc(-c5ccccc5)ccc3-4)cc21`, the emission maximum (in C1CCCCC1) was found to be 387 nm.

Turning to `CC/[NH+]=c1\cc2oc3cc(NCCC(=O)O)c4ccccc4c3nc-2cc1C`, the emission maximum came to 644 nm (in CCO) and 652 nm (in O).

For `COc1ccc(/C=C/C=C/C2=NC3C(=O)NC(N)=NC3N2[C@H]2C[C@H](O)[C@@H](CO)O2)cc1` (stereo partly specified), the emission maximum worked out at 429 nm (in C1COCCO1), 441 nm (in CC#N) and 438 nm (in CO).

In the case of `CCc1ccc(/C=N/c2cc(C(C)C)c(O)cc2C)cc1`, the emission maximum reads like this: (in C1CCCCC1) 406 nm; (in C1CCOC1) 412 nm; (in C1COCCO1) 410 nm; (in CC#N) 421 nm; (in CC(C)(C)O) 414 nm; (in CC(C)O) 418 nm. Besides, the emission maximum is, setting by setting: (in CCCCCC) 402 nm; (in CCCCO) 420 nm; (in CCO) 422 nm; (in CCOC(C)=O) 412 nm; (in CN(C)C=O) 423 nm; (in CO) 428 nm. The emission maximum was 431 nm (in CS(C)=O); 415 nm (in ClC(Cl)Cl); 420 nm (in ClCCl); 444 nm (in O); 429 nm (in OCCO).

For the compound `O=C1c2cc(F)ccc2-c2cnccc21`, the emission maximum runs as follows: (in CC#N) 540.43 nm; (in CCCCCC) 486.26 nm.

As to `CCCCN(CCCC)c1ccc(C#Cc2cc(C#Cc3ccc(N(CCCC)CCCC)cc3)c(C#Cc3cc(C(F)(F)F)cc(C(F)(F)F)c3)cc2C#Cc2cc(C(F)(F)F)cc(C(F)(F)F)c2)cc1`, the emission maximum runs as follows: (in ClCCl) 552 nm; (in c1ccccc1) 514 nm.

Regarding `NCc1ccc2ccc3cccc4ccc1c2c34`, the emission maximum is 375 nm (in C1CCCCC1), 375 nm (in CC#N), 375 nm (in CO) and 376 nm (in ClC(Cl)Cl).

As to `COc1cccc(-c2nc(-c3ccccc3)c(-c3ccccc3)[nH]2)c1`, the emission maximum (in CO) was 379 nm.

`Cc1ccc(-c2c3ccc([nH]3)c3nc(c(-c4ccc([N+](=O)[O-])cc4)c4ccc([nH]4)c4ccc([nH]4)c(-c4ccc(C)cc4)c4ccc2o4)C=C3)cc1` yielded an emission maximum (in C1CCOC1) of 758 nm, an emission maximum (in Cc1ccccc1) of 737 nm and an emission maximum (in c1ccccc1) of 737 nm.
